According to patent US20240376094A2, “SELECTIVE BCL-XL PROTAC COMPOUNDS AND METHODS OF USE” (Les Laboratoires Servier, priority 2021, published 2024):

Experiments:
Format in all cases: cell-based
Bcl-xL = biological target: T1, Bcl-xL (Homo sapiens, UniProt Q07817); test: HCT116 Bcl-xL degradation, capillary-based immunoassay (WES); conditions: for DC50: HCT116, 24 h, 9-point serial dilution
T1 construct: Measured levels of Bcl-xL protein of HCT116 cells treated with the tested compounds; host or cells: HCT116
Summary of the method: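 HCT116 cells treated 24 h with compound at 10/100 nM and/or 9-point dilution (quadruplicates), then lysed. Bcl-xL measured by capillary WES immunoassay, normalized to cofilin and expressed as % of untreated cells. DC50 from four-parameter curve fit.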

HiBiT-tagged BCL-xL = biological target: T2, HiBiT-tagged BCL-xL (Homo sapiens, UniProt Q07817); test: NCI-H1650 BCL-xL protein levels, Nano-Glo HiBiT Lytic Detection; conditions: NCI-H1650 expressing HiBiT-tagged BCL-xL, overnight incubation, read-out: Bcl-xl HIBIT NCIH1650 DC50
T2 construct: expressed in transfected cells; host or cells: NCI-H1650 (ATCC No. CRL-5883), engineered HiBiT cell line
Summary of the method: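 NCI-H1650 cells expressing HiBiT-tagged BCL-xL (5000/well) were treated overnight at 37° C with 10 concentrations, final 0.508 nM-10 μM, in triplicate. Remaining BCL-xL measured by Nano-Glo HiBiT lytic luminescence, normalized to untreated cells; 50% values by four-parameter logistic fit.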

MOLT-4 cells = test: MOLT-4 cell viability, CTG assay; conditions: Homo sapiens, MOLT-4, 48 h
Summary of the method: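 Cells grown in RPMI 1640 with 10% FBS at 37° C, 5% CO2, then exposed to compounds for 48 h (11-point 5-fold dilution, triplicates). ATP measured by CellTiter-Glo luminescence; IC50 from four-parameter fit versus control, mean of ≥2 independent experiments.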

[1] = tested on: EBC-1 lung cancer cell line; test: EBC-1 cell proliferation, CellTiter-Glo assay; conditions: Homo sapiens, 120 h; Ebc-1 cell viability, CTG assay, 5 days of treatment; read-out: CTG 5 day Ebc1 GI50
Summary of the method: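 EBC-1 cells seeded at 1000 per well overnight, then exposed to 10-point dilutions (0.508 nM–10 μM final) for 5 days at 37 °C, in triplicate. ATP luminescence by CellTiter-Glo, normalised to untreated wells; GI50 from four-parameter logistic fit, runs valid only with at least one doubling.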

T1 sequence (Q07817 whole entry): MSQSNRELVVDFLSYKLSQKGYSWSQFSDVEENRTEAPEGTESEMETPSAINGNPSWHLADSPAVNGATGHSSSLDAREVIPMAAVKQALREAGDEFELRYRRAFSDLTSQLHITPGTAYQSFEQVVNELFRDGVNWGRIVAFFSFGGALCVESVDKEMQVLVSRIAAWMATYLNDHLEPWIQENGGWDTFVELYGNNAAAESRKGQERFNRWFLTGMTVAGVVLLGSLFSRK
T2 sequence (Q07817 whole entry): as above

SMILES	DC50 (Bcl-xL) [nM]	DC50 (HiBiT-tagged BCL-xL) [nM]	IC50 (MOLT-4 cells) [nM]	GI50 [1] [nM]	remaining activity at 0.01 µM (Bcl-xL; HCT-116, HCT116, 10 nM, 24 h, % of untreated cells) [%]	remaining activity at 0.1 µM (Bcl-xL; HCT-116, HCT116, 100 nM, 24 h, % of untreated cells) [%]
Cc1ncsc1-c1ccc([C@H](C)NC(=O)[C@@H]2C[C@@H](O)CN2C(=O)[C@@H](NC(=O)CCCCCCCCCCCCCN(C)CCOC23CC4(C)CC(C)(CC(Cn5ncc(-c6ccc(N7CCCc8c7nnc(Nc7nc9ccccc9s7)c8C)nc6C(N)=O)c5C)(C4)C2)C3)C(C)(C)C)cc1 [Example 154, 6-[3-(1,3-benzothiazol-2-ylamino)-4-methyl-6,7-dihydro-5H-pyrido[2,3-c]pyridazin-8-yl]-3-[1-[[3-[2-[[14-[[(1S)-1-[(2S,4R)-4-hydroxy-2-[[(1S)-1-[4-(4-methylthiazol-5-yl)phenyl]ethyl]carbamoyl]pyrrolidine-1-carbonyl]-2,2-dimethyl-propyl]amino]-14-oxo-tetradecyl]-methyl-amino]ethoxy]-5,7-dimethyl-1-adamantyl]methyl]-5-methyl-pyrazol-4-yl]pyridine-2-carboxamide]	10.3	> 1670	6.59	222	–	–
Cc1ncsc1-c1ccc([C@H](C)NC(=O)[C@@H]2C[C@@H](O)CN2C(=O)[C@@H](NC(=O)CCCCCCCCCCCNC(=O)c2nc(N3CCCc4c3nnc(Nc3nc5ccccc5s3)c4C)ccc2-c2cnn(CC34CC5(C)CC(C)(C3)CC(OCCN3CCCC3)(C5)C4)c2C)C(C)(C)C)cc1 [Example 131, 6-[3-(1,3-benzothiazol-2-ylamino)-4-methyl-6,7-dihydro-5H-pyrido[2,3-c]pyridazin-8-yl]-3-[1-[[3,5-dimethyl-7-(2-pyrrolidin-1-ylethoxy)-1-adamantyl]methyl]-5-methyl-pyrazol-4-yl]-N-[12-[[(1S)-1-[(2S,4R)-4-hydroxy-2-[[(1S)-1-[4-(4-methylthiazol-5-yl)phenyl]ethyl]carbamoyl]pyrrolidine-1-carbonyl]-2,2-dimethyl-propyl]amino]-12-oxo-dodecyl]pyridine-2-carboxamide]	1.34	1	13.9	8	–	–
Cc1ncsc1-c1ccc([C@H](C)NC(=O)[C@@H]2C[C@@H](O)CN2C(=O)[C@@H](NC(=O)COCCCCCCCCCCCN(C)CCOC23CC4(C)CC(C)(CC(Cn5ncc(-c6ccc(N7CCCc8c7nnc(Nc7nc9ccccc9s7)c8C)nc6C(=O)O)c5C)(C4)C2)C3)C(C)(C)C)cc1 [Example 110, 6-[3-(1,3-benzothiazol-2-ylamino)-4-methyl-6,7-dihydro-5H-pyrido[2,3-c]pyridazin-8-yl]-3-[1-[[3-[2-[11-[2-[[(1S)-1-[(2S,4R)-4-hydroxy-2-[[(1S)-1-[4-(4-methylthiazol-5-yl)phenyl]ethyl]carbamoyl]pyrrolidine-1-carbonyl]-2,2-dimethyl-propyl]amino]-2-oxo-ethoxy]undecyl-methyl-amino]ethoxy]-5,7-dimethyl-1-adamantyl]methyl]-5-methyl-pyrazol-4-yl]pyridine-2-carboxylic acid]	11.4	2	23.9	379	–	–
Cc1c(Nc2nc3ccccc3s2)nnc2c1CCCN2c1ccc(-c2cnn(CC34CC5(C)CC(C)(C3)CC(OCCN(C)CCCCCCCCCCCCCCCOc3ccc6c(c3)C(=O)N(C3CCC(=O)NC3=O)C6=O)(C5)C4)c2C)c(C(=O)O)n1 (stereo not shown) [Example 119, 6-[3-(1,3-benzothiazol-2-ylamino)-4-methyl-6,7-dihydro-5H-pyrido[2,3-c]pyridazin-8-yl]-3-[1-[[3-[2-[15-[2-(2,6-dioxo-3-piperidyl)-1,3-dioxo-isoindolin-5-yl]oxypentadecyl-methyl-amino]ethoxy]-5,7-dimethyl-1-adamantyl]methyl]-5-methyl-pyrazol-4-yl]pyridine-2-carboxylic acid]	0.681	> 1670	4.78	69	–	–
Cc1ncsc1-c1ccc([C@H](C)NC(=O)[C@@H]2C[C@@H](O)CN2C(=O)[C@@H](NC(=O)COCCOCCOCCN(C)CCOC23CC4(C)CC(C)(CC(Cn5ncc(-c6ccc(N7CCCc8c7nnc(Nc7nc9ccccc9s7)c8C)nc6C(=O)O)c5C)(C4)C2)C3)C(C)(C)C)cc1 [Example 113, 6-[3-(1,3-benzothiazol-2-ylamino)-4-methyl-6,7-dihydro-5H-pyrido[2,3-c]pyridazin-8-yl]-3-[1-[[3-[2-[2-[2-[2-[2-[[(1S)-1-[(2S,4R)-4-hydroxy-2-[[(1S)-1-[4-(4-methylthiazol-5-yl)phenyl]ethyl]carbamoyl]pyrrolidine-1-carbonyl]-2,2-dimethyl-propyl]amino]-2-oxo-ethoxy]ethoxy]ethoxy]ethyl-methyl-amino]ethoxy]-5,7-dimethyl-1-adamantyl]methyl]-5-methyl-pyrazol-4-yl]pyridine-2-carboxylic acid]	> 316	> 1670	20.6	49	–	–
Cc1ncsc1-c1ccc([C@H](C)NC(=O)[C@@H]2C[C@@H](O)CN2C(=O)[C@@H](NC(=O)CCCCCCCCCN(C)CCOC23CC4(C)CC(C)(CC(Cn5ncc(-c6ccc(N7CCCc8c7nnc(Nc7nc9ccccc9s7)c8C)nc6C(=O)O)c5C)(C4)C2)C3)C(C)(C)C)cc1 [Example 133, 6-[3-(1,3-benzothiazol-2-ylamino)-4-methyl-6,7-dihydro-5H-pyrido[2,3-c]pyridazin-8-yl]-3-[1-[[3-[2-[[10-[[(1S)-1-[(2S,4R)-4-hydroxy-2-[[(1S)-1-[4-(4-methylthiazol-5-yl)phenyl]ethyl]carbamoyl]pyrrolidine-1-carbonyl]-2,2-dimethyl-propyl]amino]-10-oxo-decyl]-methyl-amino]ethoxy]-5,7-dimethyl-1-adamantyl]methyl]-5-methyl-pyrazol-4-yl]pyridine-2-carboxylic acid]	–	> 1670	10.2	4	112	105
Cc1ncsc1-c1ccc([C@H](C)NC(=O)[C@@H]2C[C@@H](O)CN2C(=O)[C@@H](NC(=O)CCOCCCCCCN(C)CCOC23CC4(C)CC(C)(CC(Cn5ncc(-c6ccc(N7CCCc8c7nnc(Nc7nc9ccccc9s7)c8C)nc6C(=O)O)c5C)(C4)C2)C3)C(C)(C)C)cc1 [Example 108, 6-[3-(1,3-benzothiazol-2-ylamino)-4-methyl-6,7-dihydro-5H-pyrido[2,3-c]pyridazin-8-yl]-3-[1-[[3-[2-[6-[3-[[(1S)-1-[(2S,4R)-4-hydroxy-2-[[(1S)-1-[4-(4-methylthiazol-5-yl)phenyl]ethyl]carbamoyl]pyrrolidine-1-carbonyl]-2,2-dimethyl-propyl]amino]-3-oxo-propoxy]hexyl-methyl-amino]ethoxy]-5,7-dimethyl-1-adamantyl]methyl]-5-methyl-pyrazol-4-yl]pyridine-2-carboxylic acid]	> 316	> 1670	9.7	81	–	–
Cc1ncsc1-c1ccc(CNC(=O)[C@@H]2C[C@@H](O)CN2C(=O)[C@@H](NC(=O)C2(F)CC2)C(C)(C)C)c(OCCCCCCCCCN(C)CCOC23CC4(C)CC(C)(CC(Cn5ncc(-c6ccc(N7CCCc8c7nnc(Nc7nc9ccccc9s7)c8C)nc6C(=O)O)c5C)(C4)C2)C3)c1 [Example 72, 6-[3-(1,3-benzothiazol-2-ylamino)-4-methyl-6,7-dihydro-5H-pyrido[2,3-c]pyridazin-8-yl]-3-[1-[[3-[2-[9-[2-[[[(2S,4R)-1-[(2S)-2-[(1-fluorocyclopropanecarbonyl)amino]-3,3-dimethyl-butanoyl]-4-hydroxy-pyrrolidine-2-carbonyl]amino]methyl]-5-(4-methylthiazol-5-yl)phenoxy]nonyl-methyl-amino]ethoxy]-5,7-dimethyl-1-adamantyl]methyl]-5-methyl-pyrazol-4-yl]pyridine-2-carboxylic acid]	13.3	> 1670	16.7	179	–	–
Cc1ncsc1-c1ccc(CNC(=O)[C@@H]2C[C@@H](O)CN2C(=O)[C@@H](NC(=O)C2(F)CC2)C(C)(C)C)c(OCCCCCCCCCCCN(C)CCOC23CC4(C)CC(C)(CC(Cn5ncc(-c6ccc(N7CCCc8c7nnc(Nc7nc9ccccc9s7)c8C)nc6C(=O)O)c5C)(C4)C2)C3)c1 [Example 76, 6-[3-(1,3-benzothiazol-2-ylamino)-4-methyl-6,7-dihydro-5H-pyrido[2,3-c]pyridazin-8-yl]-3-[1-[[3-[2-[11-[2-[[[(2S,4R)-1-[(2S)-2-[(1-fluorocyclopropanecarbonyl)amino]-3,3-dimethyl-butanoyl]-4-hydroxy-pyrrolidine-2-carbonyl]amino]methyl]-5-(4-methylthiazol-5-yl)phenoxy]undecyl-methyl-amino]ethoxy]-5,7-dimethyl-1-adamantyl]methyl]-5-methyl-pyrazol-4-yl]pyridine-2-carboxylic acid]	0.28	3	8.34	134	–	–
